This is an account of results in patent US8912121B2, “Herbicidal compositions comprising 4-amino-3-chloro-5-fluoro-6-(4-chloro-2-fluoro-3-methoxyphenyl)pyridine-2-carboxylic acid or a derivative thereof and certain PS II inhibitors” (Dow Agrosciences LLC, priority 2012, dated 2014).

The test system of test [1] is IPOHE (Ipomoea hederacea, ivyleaf morningglory). The test can be described thus: Postemergence foliar-applied mixtures, direct seeded rice, greenhouse. Type of test: in vivo, Ipomoea hederacea Jacq. Conditions: post-emergence, read-out: Visual Weed Control (%) Obs. An excerpt: (§1) Seeds or nutlets of the desired test plant species were planted in a soil matrix prepared by mixing a loam or sandy loam soil (e.g., 28.6 percent silt, 18.8 percent clay, and 52.6 percent sand, with a pH of about 5.8 and an organic matter content of about 1.8 percent) and calcareous grit in an 80 to 20 ratio. The soil matrix was contained in plastic pots with a volume of 1 quart and a surface area of 83.6 square centimeters (cm^2). When required to ensure good germination and healthy plants, a fungicide treatment and/or other chemical or physical treatment was applied. The plants were grown for 8-22 days in a greenhouse with an approximate 14 h photoperiod which was maintained at about 29° C. during the day and 26° C. during the night. Nutrients (Peters Excel® 15-5-15 5-Ca 2-Mg and iron chelate) were applied in the irrigation solution as needed and water was added on a regular basis. Supplemental lighting was provided with overhead metal halide 1000-Watt lamps as necessary. The plants were employed for testing when they reached the first through fourth true leaf stage.
(§2) Treatments consisted of the acid or esters of 4-amino-3-chloro-5-fluoro-6-(4-chloro-2-fluoro-3-methoxy-phenyl) pyridine-2-carboxylic acid (Compound A), each formulated as an SC (suspension concentrate), and various herbicidal components alone and in combination. Forms of compound A were applied on an acid equivalent basis.
(§3) Other herbicidal components were applied on an active ingredient basis and included Photosystem II (PSII)-inhibiting herbicides propanil formulated as Stam® M4 EC, bentazon-sodium formulated as Basagran®, atrazine formulated as Atrazine 90 WDG, bromoxynil octanoate ester formulated as Buctril®, simetryne (technical grade material), simazine formulated as Princep® Caliber 90, ioxynil (technical grade material), cyanazine (technical grade material), and hexazinone (technical grade material).
(§4) Treatment requirements were calculated based upon the rates being tested, the concentration of active ingredient or acid equivalent in the formulation, and a 12 mL application volume at a rate of 187 L/ha.
(§5) For treatments comprised of formulated compounds, measured amounts of compounds were placed individually in 25 mL glass vials and diluted in a volume of 1.25% (v/v) Agri-Dex® crop oil concentrated to obtain 12× stock solutions. […] Application solutions were prepared by adding an appropriate amount of each stock solution (e.g., 1 mL) and diluted to the appropriate final concentrations with the addition of 10 mL of an aqueous mixture of 1.25% (v/v) crop oil concentrate so that the final spray solutions contained 1.25+/−0.05% (v/v) crop oil concentrate.
(§6) For treatments comprised of technical compounds, weighed amounts can be placed individually in 25 mL glass vials and dissolved in a volume of 97:3 v/v acetone/DMSO to obtain 12× stock solutions. […] Application solutions can be prepared by adding an appropriate amount of each stock solution (e.g., 1 mL) and diluted to the appropriate final concentrations with the addition of 10 mL of an aqueous mixture of 1.5% (v/v) crop oil concentrate so that the final spray solutions contain 1.25% (v/v) crop oil concentrate. When technical materials are used, the concentrated stock solutions can be added to the spray solutions so that the final acetone and DMSO concentrations of the application solutions are 16.2% and 0.5%, respectively.
(§7) For treatments comprised of formulated and technical compounds, weighed amounts of the technical materials were placed individually in 25 mL glass vials and dissolved in a volume of 97:3 v/v acetone/DMSO to obtain 12× stock solutions, and measured amounts of the formulated compounds were placed individually in 25 mL glass vials and diluted in a volume of 1.5% (v/v) crop oil concentrate or water to obtain 12× stock solutions. […]

In test [2] the test system is COMBE (Commelina benghalensis, Benghal dayflower). The description is as above. Format: in vivo, Commelina benghalensis L. Conditions: 280 g ai/ha; 20 DAA.
Text: as §1, with “stage. […]” for “stage.”
as §4
(§8) For treatments comprised of formulated compounds, measured amounts of compounds were placed individually in 25 mL glass vials and diluted in a volume of 1.25% (v/v) Agri-Dex® crop oil concentrated to obtain 12× stock solutions. […]
as §7

In test [3] the test system is SCPMA (Schoenoplectus maritimus, sea clubrush). Nature of the test: In-water applied mixtures, transplanted paddy rice, greenhouse. Type of test: in vivo, Schoenoplectus maritimus (L.) Lye. The following applies: 1120 g ae/ha; 20 DAA. On the procedure: (§9) Weed seeds or nutlets of the desired test plant species were planted in puddled soil (mud) prepared by mixing a shredded, non-sterilized mineral soil (50.5 percent silt, 25.5 percent clay, and 24 percent sand, with a pH of about 7.6 and an organic matter content of about 2.9 percent) and water at a 1:1 volumetric ratio. The prepared mud was dispensed in 365 mL aliquots into 16-ounce (oz.) non-perforated plastic pots with a surface area of 86.59 square centimeters (cm^2) leaving a headspace of 3 centimeters (cm) in each pot Mud was allowed to dry overnight prior to planting or transplanting. Rice seeds were planted in Sun Gro MetroMix® 306 planting mixture, which typically has a pH of 6.0 to 6.8 and an organic matter content of about 30 percent, in plastic plug trays. Seedlings at the second or third leaf stage of growth were transplanted into 840 mL of mud contained in 32-oz. non-perforated plastic pots with a surface area of 86.59 cm^2 4 days prior to herbicide application. The paddy was created by filling the headspace of the pots with 2.5 to 3 cm of water. When required to ensure good germination and healthy plants, a fungicide treatment and/or other chemical or physical treatment was applied. The plants were grown for 4-22 days in a greenhouse with an approximate 14 h photoperiod which was maintained at about 29° C during the day and 26° C. during the night. Nutrients were added as Osmocote® (19:6:12, N:P:K+ minor nutrients) at 2 g per 16-oz. pot and 4 g per 32-oz. pot. Water was added on a regular basis to maintain the paddy flood, and supplemental lighting was provided with overhead metal halide 1000-Watt lamps as necessary. The plants were employed for testing when they reached the first through fourth true leaf stage.
(§10) Treatments consisted of the acid or esters of 4-amino-3-chloro-5-fluoro-6-(4-chloro-2-fluoro-3-methoxy-phenyl)pyridine-2-carboxylic acid (compound A) each formulated as an SC (suspension concentrate) and various herbicidal components alone and in combination. Forms of compound A were applied on an acid equivalent basis.
(§11) Other herbicidal components were applied on an active ingredient basis and included photosystem II (PSII)-inhibits propanil formulated as […] bentazon-sodium formulated as Basagran®, and simetryne (technical grade material).
(§12) Treatment requirements for each compound or herbicidal component were calculated based upon the rates being tested, the concentration of active ingredient or acid equivalent in the formulation, an application volume of 2 mL per component per pot, and an application area of 86.59 cm^2 per pot.
(§13) For formulated compounds, a measured amount was placed in an individual 100 or 200 mL glass vial and was dissolved in a volume of 1.25% (v/v) Agri-Dex® crop oil concentrate to obtain application solutions.
(§14) For technical grade compounds, a weighed amount was placed in an individual 100 to 200 mL glass vial and was dissolved in a volume of acetone to obtain concentrated stock solutions. […] The concentrated stock solutions obtained were diluted with an equivalent volume of an aqueous mixture containing 2.5% (v/v) crop oil concentrate so that the final application solutions contained 1.25% (v/v) crop oil concentrate.
(§15) Applications were made by injecting with a pipetter appropriate amounts of the application solutions, individually and sequentially, into the aqueous layer of the paddy. Control plants were treated in the same manner with the solvent blank. Applications were made so that all treated plant material received the same concentrations of acetone and crop oil concentrate.
(§16) The treated plants and control plants were placed in a greenhouse as described above and water was added as needed to maintain a paddy flood. After approximately 3 weeks the condition of the test plants as compared with that of the untreated plants was determined visually and scored on a scale of 0 to 100 percent where 0 corresponds to no injury or growth inhibition and 100 corresponds to complete kill. […]

The test system of test [4] is ECHCG (Echinochloa crusgalli, barnyardgrass). The description is as above. The following applies: 21 DAA. Format: in vivo, Echinochloa crusgalli (L.) Beauv. The protocol:
as §9, with “stage. […]” for “stage.”
as §12
For formulated compounds, a measured amount was placed in an individual 100 or 200 mL glass vial and was dissolved in a volume of 1.25% (v/v) Agri-Dex® crop oil concentrate to obtain application solutions. […]
as §16

Test [5] relates to LEFCH (Leptochloa chinensis, Chinese sprangletop). The test is described as above. Type of test: in vivo, Leptochloa chinensis (L.) Nees. The protocol:
as §9, §10, §11, §12, §13, §14, §15, §16

Test [6] relates to ECHOR (Echinochloa oryzoides, early watergrass). The test is described as above. Type of test: in vivo, Echinochloa oryzoides (Ard.) Fritsch. The protocol:
as §9, §10, §11, §12, §13, §14, §15, §16

Test [7] deals with ECHCO (Echinochloa colona, junglerice). The test can be described thus: Postemergence foliar-applied mixtures, direct seeded rice, greenhouse. Format: in vivo, Echinochloa colona (L.) Link. The following applies: 450 g ai/ha; 21 DAA.
Text: as §1, §2, §3, §4, §5, §6, §7

Test [8] relates to CYPIR (Cyperus iria, rice flatsedge). Described as above. Format: in vivo, Cyperus iria L. The following applies: 22 DAA.
Text: as §1, §2, §3, §4, §5, §6, §7

Test [9] concerns LEFCH (Leptochloa chinensis, Chinese sprangletop). The test is described as above. Format: in vivo, Leptochloa chinensis (L.) Nees. Conditions: 225 g ai/ha; 22 DAA.
Text: as §1, with “stage. […]” for “stage.”
as §4, §8, §7

For test [10], the system named is FIMMI (Fimbristylis miliacea, globe fringerush). Nature of the test: In-water applied mixtures, transplanted paddy rice, greenhouse. Type of test: in vivo, Fimbristylis miliacea (L.) Vahl. Conditions: 19 DAA. On the procedure: as §9, §10, §11, §12, §13
For technical grade compounds, a weighed amount was placed in an individual 100 to 200 mL glass vial and was dissolved in a volume of acetone to obtain concentrated stock solutions. […]
as §16

Test [11] deals with CYPRO (Cyperus rotundus, purple nutsedge). Described as above. Format: in vivo, Cyperus rotundus L. Conditions: 19 DAA. On the procedure:
as §9, §10, §11, §12, §13, §14, §15, §16

Where two headings read alike, the source gives them in different places.

With `CC(C)N1C(=O)c2ccccc2NS1(=O)=O` [Bentazon-sodium, 3-(1-methylethyl)-1H-2,1,3-benzothiadiazin-4(3H)-one 2,2-dioxide, reference compound], the pest or weed control at 840 g/ha in [1] (480 h, 840 g ae/ha, 20 DAA) stood at 13%; in test [1] (504 h, 840 g ai/ha, 21 DAA), 13%. For the same compound, the pest or weed control at 105 g/ha in test [1] (504 h, 105 g ai/ha, 21 DAA) was found to be 0%. Further, in test [1] (504 h, 210 g ai/ha, 21 DAA), the pest or weed control at 210 g/ha is 0%. For the same compound, the pest or weed control at 420 g/ha in [1] (504 h, 420 g ai/ha, 21 DAA) came out at 10%. The “Visual Weed Control (%) Obs” value in test [2] was 10%; in [3], 0%; in test [4] (420 g ae/ha) it was 0%; in test [4] (840 g ae/ha) it was 0%; in test [5] (420 g ae/ha, 21 DAA), 0%; in test [5] (840 g ae/ha, 21 DAA), 0%. Besides, the “Visual Weed Control (%) Obs” value in test [5] (1120 g ae/ha, 20 DAA) worked out at 0%; in test [6] (1120 g ae/ha, 20 DAA), 0%.

Regarding `CCNc1nc(NCC)nc(SC)n1` [Simetryne, N,N′-diethyl-6-(methylthio)-1,3,5-triazine-2,4-diamine, reference compound], the “Visual Weed Control (%) Obs” value in test [7] was 45%; in test [8] (112.5 g ai/ha), 0%; in test [8] (225 g ai/ha) it was 0%; in test [8] (450 g ai/ha), 30%; in test [9], 40%; in test [6] (112.5 g ai/ha, 19 DAA), 0%. Further, the “Visual Weed Control (%) Obs” value in test [6] (225 g ai/ha, 19 DAA) was determined as 10%; in test [10] (112.5 g ai/ha), 45%; in test [10] (225 g ai/ha), 90%; in test [11] (112.5 g ai/ha) it was 0%; in [11] (225 g ai/ha), 0%; in test [11] (450 g ai/ha), 0%.
